# Laboratory results published in ChEMBL document CHEMBL4814079, “Structure-Activity Relationship for the Picolinamide Antibacterials that Selectively Target Clostridioides difficile” (ACS Med Chem Lett, 2021).
# Legend:
# HeLa [1] = assay: Cytotoxicity against human HeLa cells assessed as reduction in cell viability incubated for 16 hrs by XTT assay; format: cell-based
# Clostridioides difficile = assay: Antibacterial activity against Clostridium difficile ATCC 43255 assessed as reduction in bacterial growth measured after 48 hrs by CLSI based broth microdilution method; format: functional
# Staphylococcus aureus = assay: Antibacterial activity against […] Staphylococcus aureus ATCC 29213 assessed as reduction in bacterial growth measured after 48 hrs by CLSI based broth microdilution method; format: functional
# [2] = Selectivity index, ratio of MIC of […] Staphylococcus aureus ATCC 29213 to MIC of Clostridium difficile ATCC 43255; format: functional
# Enterococcus faecium = assay: Antibacterial activity against Enterococcus faecium ATCC 19434 assessed as reduction in bacterial growth measured after 48 hrs by CLSI based broth microdilution method; format: functional
# Bacteroides fragilis = assay: Antibacterial activity against gut Bacteroides fragilis HM-709 assessed as reduction in bacterial growth measured after 48 hrs by CLSI based broth microdilution method; format: organism-based; conditions: in vitro
# Bifidobacterium longum = assay: Antibacterial activity against gut Bifidobacterium longum HM-846 assessed as reduction in bacterial growth measured after 48 hrs by CLSI based broth microdilution method; format: organism-based
# Corynebacterium = assay: Antibacterial activity against gut Corynebacterium HM-784 assessed as reduction in bacterial growth measured after 48 hrs by CLSI based broth microdilution method; format: organism-based
# Fusobacterium nucleatum = assay: Antibacterial activity against gut Fusobacterium nucleatum HM-992 assessed as reduction in bacterial growth measured after 48 hrs by CLSI based broth microdilution method; format: organism-based; conditions: in vitro
# [3] = Antibacterial activity against gut Limosilactobacillus-reuteri HM-102 assessed as reduction in bacterial growth measured after 48 hrs by CLSI based broth microdilution method
# Lactobacillus gasseri = assay: Antibacterial activity against gut Lactobacillus gasseri HM-664 assessed as reduction in bacterial growth measured after 48 hrs by CLSI based broth microdilution method; format: organism-based; conditions: in vitro
# Veillonella = assay: Antibacterial activity against gut Veillonella sp HM-49 assessed as reduction in bacterial growth measured after 48 hrs by CLSI based broth microdilution method; format: organism-based; conditions: in vitro
# Eubacterium sp. = assay: Antibacterial activity against gut Eubacterium sp. HM-178 assessed as reduction in bacterial growth measured after 48 hrs by CLSI based broth microdilution method; format: organism-based
# [4] = Drug excretion in CD1 mouse feces at 20 mg/kg, po measured upto 8 hrs by LC-MS/MS analysis; format: ADME, organism-based; conditions: in vivo
# [5] = Plasma concentration in CD1 mouse at 20 mg/kg, po measured upto 8 hrs by LC-MS/MS analysis; format: ADME, organism-based; conditions: in vivo, BLD = below limit of detection
# [6] = Ratio of drug excretion in CD-1 mouse feces to MIC for antibacterial activity against Clostridium difficile ATCC 43255; format: toxicity; conditions: in vivo
# HeLa [7] = assay: Cytotoxicity against human HeLa cells assessed as reduction in cell viability at 256 ug/ml incubated for 16 hrs by XTT assay; format: cell-based; conditions: dose 256 µg/ml
# HeLa [8] = assay: Cytotoxicity against human HeLa cells assessed as reduction in cell viability at 64 ug/ml incubated for 16 hrs by XTT assay; format: cell-based; conditions: dose 64 µg/ml
# HeLa [9] = assay: Cytotoxicity against human HeLa cells assessed as reduction in cell viability at 128 ug/ml incubated for 16 hrs by XTT assay; format: cell-based; conditions: dose 128 µg/ml
structure (smiles),measurement,setting,value
O=C(Nc1ncco1)c1cc(-c2cc(F)cc(F)c2)ccn1,IC50,HeLa [1],40.1 µg/mL
same,MIC,Clostridioides difficile,1 µg/mL
same,MIC,Staphylococcus aureus,64 µg/mL
same,Ratio,[2],64
O=C(Nc1ncco1)c1cc(Oc2ccc(F)c(F)c2)ccn1,MIC,Clostridioides difficile,1 µg/mL
same,MIC,Staphylococcus aureus,64 µg/mL
same,Ratio,[2],64
O=C(Nc1ncco1)c1ccnc(-c2ccc(Cl)c(Cl)c2)c1,IC50,HeLa [1],79.9 µM
same,MIC,Clostridioides difficile,0.25 µg/mL
same,MIC,Staphylococcus aureus,25 µg/mL
same,MIC,Enterococcus faecium,0.06 µg/mL
same,MIC,Bacteroides fragilis,1 µg/mL
same,MIC,Bifidobacterium longum,> 16 µg/mL
same,MIC,Corynebacterium,0.5 µg/mL
same,MIC,Fusobacterium nucleatum,8 µg/mL
same,MIC,[3],8 µg/mL
same,MIC,Lactobacillus gasseri,> 16 µg/mL
same,MIC,Veillonella,4 µg/mL
same,MIC,Eubacterium sp.,> 16 µg/mL
same,Drug excretion,[4],2.8 µg/g
same,Cp,[5],Bld
same,Ratio,[6],11
O=C(Nc1ncco1)c1cc(-c2ccc(Cl)c(F)c2)ccn1,MIC,Clostridioides difficile,0.25 µg/mL
same,MIC,Staphylococcus aureus,128 µg/mL
same,Ratio,[2],512
same,Activity,HeLa [7],Non-Toxic
O=C(Nc1ncco1)c1cc(-c2ccc(F)c(Cl)c2)ccn1,MIC,Clostridioides difficile,0.25 µg/mL
same,MIC,Staphylococcus aureus,128 µg/mL
same,Ratio,[2],512
O=C(Nc1ncco1)c1cc(-c2cccc(F)c2)ccn1,MIC,Clostridioides difficile,0.5 µg/mL
same,MIC,Staphylococcus aureus,64 µg/mL
same,Ratio,[2],128
same,Activity,HeLa [8],Non-Toxic
O=C(Nc1ncco1)c1cc(-c2ccc(Cl)cc2)ccn1,MIC,Clostridioides difficile,4 µg/mL
same,MIC,Staphylococcus aureus,128 µg/mL
same,Ratio,[2],32
CN[C@H](CC(C)C)C(=O)N[C@H]1C(=O)N[C@@H](CC(N)=O)C(=O)N[C@H]2C(=O)N[C@H]3C(=O)N[C@H](C(=O)N[C@H](C(=O)O)c4cc(O)cc(O)c4-c4cc3ccc4O)[C@H](O)c3ccc(c(Cl)c3)Oc3cc2cc(c3O[C@@H]2O[C@H](CO)[C@@H](O)[C@H](O)[C@H]2O[C@H]2C[C@](C)(N)[C@H](O)[C@H](C)O2)Oc2ccc(cc2Cl)[C@H]1O [VANCOMYCIN],MIC,Bacteroides fragilis,16 µg/mL
same,MIC,Bifidobacterium longum,0.25 µg/mL
same,MIC,Fusobacterium nucleatum,0.25 µg/mL
same,MIC,[3],> 32 µg/mL
same,MIC,Lactobacillus gasseri,1 µg/mL
same,MIC,Veillonella,> 32 µg/mL
same,MIC,Eubacterium sp.,2 µg/mL
O=C(Nc1ncco1)c1cc(Oc2ccc(SC(F)(F)F)cc2)ccn1,MIC,Clostridioides difficile,1 µg/mL
same,MIC,Staphylococcus aureus,≥ 256 µg/mL
same,Ratio,[2],> 256
O=C([O-])c1ccc2oc(NC(=O)c3cc(Oc4ccc(F)c(F)c4)ccn3)nc2c1.[Na+],MIC,Clostridioides difficile,0.5 µg/mL
same,MIC,Staphylococcus aureus,64 µg/mL
same,Activity,HeLa [9],Non-Toxic
same,Drug excretion,[4],3.7 µg/g
same,Cp,[5],Bld
same,Ratio,[6],7.4
O=C(Nc1ncco1)c1cc(-c2ccc(OC(F)(F)F)cc2)ccn1,MIC,Clostridioides difficile,0.25 µg/mL
same,MIC,Staphylococcus aureus,125 µg/mL
same,Ratio,[2],512
O=C(Nc1ncco1)c1cc(-c2ccc(F)cc2)ccn1,MIC,Clostridioides difficile,1 µg/mL
same,MIC,Staphylococcus aureus,64 µg/mL
same,Ratio,[2],64
COC(=O)c1ccc2oc(NC(=O)c3cc(Oc4ccc(F)c(F)c4)ccn3)nc2c1,MIC,Clostridioides difficile,0.25 µg/mL
same,MIC,Staphylococcus aureus,64 µg/mL
same,Ratio,[2],256
O=C(Nc1ncco1)c1cc(Oc2ccc(OC(F)(F)F)cc2)ccn1,MIC,Clostridioides difficile,1 µg/mL
same,MIC,Staphylococcus aureus,128 µg/mL
same,Ratio,[2],128
O=C(Nc1ncco1)c1ccnc(Oc2ccc(Cl)c(Cl)c2)c1,IC50,HeLa [1],37 µg/mL
O=C(O)c1ccc2oc(NC(=O)c3cc(-c4ccc(OC(F)(F)F)cc4)ccn3)nc2c1,IC50,HeLa [1],79.9 µg/mL
same,MIC,Clostridioides difficile,0.03 µg/mL
same,MIC,Staphylococcus aureus,8 µg/mL
same,Ratio,[2],256
CCc1c(Cl)c(O)c(Cl)c(O)c1C(=O)O[C@H]1[C@H](O)[C@H](OC)[C@H](OC/C2=C\C=C\C[C@H](O)/C(C)=C/[C@H](CC)[C@@H](O[C@@H]3OC(C)(C)[C@@H](OC(=O)C(C)C)[C@H](O)[C@@H]3O)/C(C)=C/C(C)=C/C[C@@H]([C@@H](C)O)OC2=O)O[C@@H]1C [FIDAXOMICIN],MIC,Clostridioides difficile,0.0625 µg/mL
same,MIC,Bacteroides fragilis,> 32 µg/mL
same,MIC,Bifidobacterium longum,< 0.01 µg/mL
same,MIC,Corynebacterium,< 0.0625 µg/mL
same,MIC,Fusobacterium nucleatum,< 0.0625 µg/mL
same,MIC,[3],> 32 µg/mL
same,MIC,Lactobacillus gasseri,2 µg/mL
same,MIC,Veillonella,8 µg/mL
same,MIC,Eubacterium sp.,16 µg/mL
O=C(Nc1ncco1)c1cc(Oc2cccc(OC(F)(F)F)c2)ccn1,MIC,Clostridioides difficile,1 µg/mL
same,MIC,Staphylococcus aureus,64 µg/mL
same,MIC,Bacteroides fragilis,8 µg/mL
same,MIC,Bifidobacterium longum,16 µg/mL
same,MIC,Corynebacterium,> 16 µg/mL
same,MIC,Fusobacterium nucleatum,8 µg/mL
same,MIC,[3],4 µg/mL
same,MIC,Lactobacillus gasseri,> 16 µg/mL
same,MIC,Veillonella,16 µg/mL
same,MIC,Eubacterium sp.,8 µg/mL
same,Ratio,[2],64
same,Drug excretion,[4],49 µg/g
same,Cp,[5],Bld
same,Ratio,[6],49
O=C(O)c1ccc2oc(NC(=O)c3cc(Oc4ccc(F)c(F)c4)ccn3)nc2c1 [listing 1 of 2 here],Ratio,[2],128
Cc1ncc([N+](=O)[O-])n1CCO [METRONIDAZOLE],MIC,Bacteroides fragilis,1 µg/mL
same,MIC,Bifidobacterium longum,1 µg/mL
same,MIC,Corynebacterium,> 32 µg/mL
same,MIC,Fusobacterium nucleatum,2 µg/mL
same,MIC,[3],> 32 µg/mL
same,MIC,Lactobacillus gasseri,> 32 µg/mL
same,MIC,Veillonella,2 µg/mL
same,MIC,Eubacterium sp.,1 µg/mL
O=C(Nc1ncco1)c1cc(Oc2cccc(F)c2)ccn1,MIC,Clostridioides difficile,1 µg/mL
same,MIC,Staphylococcus aureus,≥ 256 µg/mL
same,Ratio,[2],> 256
same,Drug excretion,[4],2.4 µg/g
same,Cp,[5],Bld
same,Ratio,[6],2.4
O=C(Nc1ncco1)c1cc(-c2cccc(OC(F)(F)F)c2)ccn1,MIC,Clostridioides difficile,0.5 µg/mL
same,MIC,Staphylococcus aureus,≥ 256 µg/mL
same,Ratio,[2],> 512
O=C(O)c1ccc2oc(NC(=O)c3cc(Oc4ccc(F)c(F)c4)ccn3)nc2c1 [listing 2 of 2 here],MIC,Clostridioides difficile,0.5 µg/mL
same,MIC,Staphylococcus aureus,64 µg/mL
O=C(Nc1ncco1)c1cc(-c2cccc(C(F)(F)F)c2)ccn1,MIC,Clostridioides difficile,0.5 µg/mL
same,MIC,Staphylococcus aureus,64 µg/mL
same,Ratio,[2],128
O=C(Nc1ncco1)c1cc(-c2ccc(C(F)(F)F)cc2)ccn1,MIC,Clostridioides difficile,0.25 µg/mL
same,MIC,Staphylococcus aureus,128 µg/mL
same,Ratio,[2],512
O=C([O-])c1ccc2oc(NC(=O)c3cc(Oc4cccc(OC(F)(F)F)c4)ccn3)nc2c1.[Na+],MIC,Clostridioides difficile,0.125 µg/mL
same,MIC,Staphylococcus aureus,16 µg/mL
same,MIC,Bacteroides fragilis,4 µg/mL
same,MIC,Bifidobacterium longum,16 µg/mL
same,MIC,Corynebacterium,8 µg/mL
same,MIC,Fusobacterium nucleatum,4 µg/mL
same,MIC,[3],4 µg/mL
same,MIC,Lactobacillus gasseri,> 16 µg/mL
same,MIC,Veillonella,16 µg/mL
same,MIC,Eubacterium sp.,16 µg/mL
same,Ratio,[2],128
same,Drug excretion,[4],13 µg/g
same,Cp,[5],Bld
same,Ratio,[6],108
COc1ccc(Oc2ccnc(C(=O)Nc3ncco3)c2)cc1,MIC,Clostridioides difficile,1 µg/mL
same,MIC,Staphylococcus aureus,≥ 256 µg/mL
same,Ratio,[2],> 256
O=C(O)c1ccc2oc(NC(=O)c3cc(-c4cccc(OC(F)(F)F)c4)ccn3)nc2c1,IC50,HeLa [1],124 µg/mL
same,MIC,Clostridioides difficile,0.03 µg/mL
same,MIC,Staphylococcus aureus,16 µg/mL
same,Ratio,[2],512
O=C(Nc1ncco1)c1cc(-c2ccc(F)c(F)c2)ccn1,MIC,Clostridioides difficile,0.5 µg/mL
same,MIC,Staphylococcus aureus,128 µg/mL
same,Ratio,[2],256
same,Activity,HeLa [8],Non-Toxic
